# Test results from ChEMBL document CHEMBL5033988, “Quinolizidine Alkaloids from Cylicomorpha solmsii” (2021).
# Legend:
# Assay type in all cases: functional
# Settings in all cases: HCT-116, 72 h, time 3 day
# [1] = tested on: HCT-116; assay: Antiproliferative activity against human HCT-116 cells assessed as cell growth inhibition at 20 uM after 3 days by ATPlite assay relative to control
# [2] = tested on: HCT-116; assay: Antiproliferative activity against human HCT-116 cells assessed as cell growth inhibition at 10 uM after 3 days by ATPlite assay relative to control
# [3] = tested on: HCT-116; assay: Antiproliferative activity against human HCT-116 cells assessed as cell growth inhibition at 1 uM after 3 days by ATPlite assay relative to control
# [4] = tested on: HCT-116; assay: Antiproliferative activity against human HCT-116 cells assessed as cell growth inhibition at 0.4 uM after 3 days by ATPlite assay relative to control
SMILES,inhibition at 20 µM [1],inhibition at 10 µM [2],inhibition at 1 µM [3],inhibition at 0.4 µM [4]
COc1ccc(/C=C/C(=O)O[C@@H]2CC[C@@H]3CCC[C@H](CC(=O)O)N3[C@H]2C)cc1,80.2%,62.3%,0.9%,-6.1%
COc1ccc(C(=O)O[C@@H]2CC[C@@H]3CCC[C@H](CC(=O)O)N3[C@H]2C)c(OC)c1,-3.2%,-4.7%,-8%,-6.1%
COc1cccc2c1C(=O)c1c(O)c3c(c(O)c1C2=O)C[C@@](O)(C(=O)CO)C[C@@H]3O[C@H]1C[C@H](N)[C@H](O)[C@H](C)O1 [DOXORUBICIN],91.7%,91.1%,96.3%,84.5%
C[C@H]1[C@H](OC(=O)/C=C/c2ccccc2)CC[C@@H]2CCC[C@H](CC(=O)O)N21,0.7%,-4.2%,-7.8%,-3.6%
COc1ccc(C(=O)O[C@@H]2CC[C@@H]3CCC[C@H](CC(=O)O)N3[C@H]2C)cc1OC,-13.1%,-6.4%,-5.5%,-3.6%
C[C@H]1[C@H](OC(=O)c2ccccc2)CC[C@@H]2CCC[C@H](CC(=O)O)N21,-6.2%,-10.2%,-4.3%,-12.8%
